{"source": "ChEMBL document CHEMBL5030523", "about": "“Mechanisms of the Antiproliferative and Antitumor Activity of Novel Telomerase-Carbonic Anhydrase Dual-Hybrid Inhibitors” (J Med Chem, 2021)", "key": {"[1]": {"target": "T1, Telomerase reverse transcriptase (Homo sapiens, UniProt O14746)", "T1 sequence (O14746 whole entry)": "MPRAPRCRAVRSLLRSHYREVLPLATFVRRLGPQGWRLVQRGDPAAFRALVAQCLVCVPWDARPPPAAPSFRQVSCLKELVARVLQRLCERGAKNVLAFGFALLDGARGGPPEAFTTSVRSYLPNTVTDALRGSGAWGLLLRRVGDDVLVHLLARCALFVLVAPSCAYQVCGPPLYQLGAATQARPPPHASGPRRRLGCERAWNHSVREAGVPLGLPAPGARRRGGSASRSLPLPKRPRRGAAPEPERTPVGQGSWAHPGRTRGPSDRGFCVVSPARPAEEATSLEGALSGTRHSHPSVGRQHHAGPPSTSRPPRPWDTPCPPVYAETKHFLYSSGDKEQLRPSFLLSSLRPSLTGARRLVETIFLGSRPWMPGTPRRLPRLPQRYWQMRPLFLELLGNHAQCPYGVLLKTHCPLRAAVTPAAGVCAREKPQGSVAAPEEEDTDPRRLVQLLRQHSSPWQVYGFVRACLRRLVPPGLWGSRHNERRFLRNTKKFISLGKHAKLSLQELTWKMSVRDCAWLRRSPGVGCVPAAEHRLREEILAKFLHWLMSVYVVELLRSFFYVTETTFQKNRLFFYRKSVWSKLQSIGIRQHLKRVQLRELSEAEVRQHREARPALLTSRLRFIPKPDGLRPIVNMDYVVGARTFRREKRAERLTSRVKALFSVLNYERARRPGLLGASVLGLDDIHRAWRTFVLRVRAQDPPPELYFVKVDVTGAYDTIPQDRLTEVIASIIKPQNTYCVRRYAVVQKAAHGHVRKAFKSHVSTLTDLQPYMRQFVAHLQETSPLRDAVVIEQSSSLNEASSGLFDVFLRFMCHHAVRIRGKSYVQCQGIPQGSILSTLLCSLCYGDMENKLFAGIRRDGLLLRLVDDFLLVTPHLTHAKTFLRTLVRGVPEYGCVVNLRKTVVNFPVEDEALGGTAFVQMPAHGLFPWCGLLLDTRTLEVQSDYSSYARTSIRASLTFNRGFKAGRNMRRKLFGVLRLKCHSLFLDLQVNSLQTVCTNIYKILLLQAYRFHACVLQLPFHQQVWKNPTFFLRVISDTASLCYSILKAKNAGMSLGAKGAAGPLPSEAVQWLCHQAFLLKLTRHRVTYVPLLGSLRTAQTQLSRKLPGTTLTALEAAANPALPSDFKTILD", "experiment": "Inhibition of telomerase in human HCT-116 cells after 72 hrs by TRAP gel electrophoresis", "assay_type": "cell-based"}, "[2]": {"target": "T1, Telomerase reverse transcriptase", "experiment": "Inhibition of telomerase in human SW-620 cells after 72 hrs by TRAP gel electrophoresis", "assay_type": "cell-based"}, "COLO 205 [3]": {"tested_on": "COLO 205", "experiment": "Cell cycle arrest in human COLO 205 cells assessed as accumulation at G0/G1 phase incubated for 12 hrs by propidium iodide staining based flow cytometry analysis (reference value: 58.82 %)", "assay_type": "functional"}, "[4]": {"target": "T1, Telomerase reverse transcriptase", "experiment": "Inhibition of telomerase in human COLO 205 cells assessed as shortening of telomere length at 30 uM by measured after 56 days qPCR relative to control", "assay_type": "cell-based", "conditions": "time 56.0 day"}, "COLO 205 [5]": {"tested_on": "COLO 205", "experiment": "Induction of apoptosis in human COLO 205 cells assessed as viable cells incubated for 24 hrs by Annexin V/FITC and PI staining based flow cytometry analysis (reference value: 71.63 %)", "assay_type": "functional"}, "COLO": {"tested_on": "COLO", "experiment": "In vivo inhibition of telomerase in BALB/c mouse xenografted with human COLO 205 cells assessed as reduction in telomere length at 50 mg/kg, sc", "assay_type": "functional, organism-based"}, "COLO 205 [6]": {"tested_on": "COLO 205", "experiment": "Induction of apoptosis in human COLO 205 cells assessed as necrotic cells incubated for 56 days by Annexin V/FITC and PI staining based flow cytometry analysis (reference value: 0.2 %)", "assay_type": "functional", "conditions": "time 56 day"}, "[7]": {"target": "T1, Telomerase reverse transcriptase", "experiment": "Inhibition of telomerase in human COLO 205 cells by TRAP assay", "assay_type": "cell-based"}, "COLO 205 [8]": {"tested_on": "COLO 205", "experiment": "Antitumor activity against human COLO 205 cells xenografted in BALB/c nude mouse assessed as tumor growth inhibition at 50 mg/kg, sc administered as single dose measured after 3 days relative to control", "assay_type": "functional", "conditions": "COLO 205, sc, 72 h, time 3 day, read-out: TGI"}, "COLO 205 [9]": {"tested_on": "COLO 205", "experiment": "Induction of apoptosis in human COLO 205 cells assessed as early apoptotic cells incubated for 24 hrs by Annexin V/FITC and PI staining based flow cytometry analysis (reference value: 14.75 %)", "assay_type": "functional"}, "[10]": {"target": "T1, Telomerase reverse transcriptase", "experiment": "Inhibition of telomerase in human SW-620 cells by TRAP assay", "assay_type": "cell-based"}, "[11]": {"target": "T1, Telomerase reverse transcriptase", "experiment": "Non-competitive inhibition of telomerase (unknown origin) assessed as decrease in Km at 1 uM using […] by Michaelis-Menten analysis relative to control", "conditions": "COLO 205"}, "COLO 205 [12]": {"tested_on": "COLO 205", "experiment": "Induction of cell cycle arrest in human COLO 205 cells assessed as decrease in number of cells in S phase incubated for 44 to 56 days by propidium iodide staining based flow cytometry analysis", "assay_type": "functional", "conditions": "time 44-56 day"}, "[13]": {"target": "T1, Telomerase reverse transcriptase", "experiment": "Inhibition of telomerase in human HT-29 cells after 72 hrs by TRAP gel electrophoresis", "assay_type": "cell-based"}, "[14]": {"target": "T1, Telomerase reverse transcriptase", "experiment": "Inhibition of telomerase in human COLO 205 cell lysate at 10 uM by TRAP assay relative to control", "assay_type": "subcellular"}, "Carbonic anhydrase 1": {"target": "Carbonic anhydrase 1 (Homo sapiens, UniProt P00915)", "sequence (P00915 whole entry)": "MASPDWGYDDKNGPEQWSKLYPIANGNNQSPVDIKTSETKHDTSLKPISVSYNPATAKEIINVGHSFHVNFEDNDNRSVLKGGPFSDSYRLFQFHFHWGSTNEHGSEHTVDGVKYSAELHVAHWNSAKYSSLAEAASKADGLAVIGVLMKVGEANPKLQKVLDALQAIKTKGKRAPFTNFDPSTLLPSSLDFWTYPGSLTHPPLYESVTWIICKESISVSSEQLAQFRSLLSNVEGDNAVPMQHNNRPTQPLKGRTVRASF", "experiment": "Inhibition of human carbonic anhydrase 1 by stopped-flow CO2 hydration assay"}, "COLO 205 [15]": {"tested_on": "COLO 205", "experiment": "Induction of apoptosis in human COLO 205 cells assessed as late apoptotic cells incubated for 56 days by Annexin V/FITC and PI staining based flow cytometry analysis (reference value: 1.27 %)", "assay_type": "functional", "conditions": "time 56 day"}, "COLO 205 [16]": {"tested_on": "COLO 205", "experiment": "Antitumor activity against human COLO 205 cells xenografted in BALB/c nude mouse assessed as change in tumor volume at 50 mg/kg, sc administered as single dose measured after 3 days (reference value: 449.3 +/- 86.2 mm3)", "assay_type": "functional", "conditions": "time 3 day"}, "[17]": {"target": "T1, Telomerase reverse transcriptase", "experiment": "Non-competitive inhibition of telomerase (unknown origin) assessed as decrease in Vmax at 1 uM by Michaelis-Menten analysis"}, "COLO 205 [18]": {"tested_on": "COLO 205", "experiment": "Antitumor activity against human COLO 205 cells xenografted in BALB/c nude mouse assessed as tumor growth inhibition at 50 mg/kg, sc administered as single dose measured after 5 days relative to control", "assay_type": "functional", "conditions": "COLO 205, sc, 120 h, time 5 day, read-out: TGI"}, "COLO 205 [19]": {"tested_on": "COLO 205", "experiment": "Antitumor activity against human COLO 205 cells xenografted in BALB/c nude mouse assessed as change in tumor volume at 50 mg/kg, sc administered as single dose measured after 5 days (reference value: 270.1 +/- 52.1 mm3)", "assay_type": "functional", "conditions": "time 5 day"}}, "note": "Active and inactive are the calls of the source. The rule behind the calls is not given here.", "data": [{"compound": "Cc1cn([C@H]2C[C@@H](n3cc(CNC(=O)Nc4cccc(S(N)(=O)=O)c4)nn3)[C@@H](CO)O2)c(=O)[nH]c1=O", "values": [{"measurement": "inhibition", "setting": "[1]", "value": "Dose-Dependent Effect"}, {"measurement": "inhibition", "setting": "[2]", "value": "Dose-Dependent Effect"}, {"measurement": "Activity", "setting": "COLO 205 [3]", "value": 87.83, "unit": "%"}, {"measurement": "inhibition", "setting": "[4]", "value": 4.5, "unit": "%"}, {"measurement": "Activity", "setting": "COLO 205 [5]", "value": 94.91, "unit": "%"}, {"measurement": "inhibition", "setting": "COLO", "value": "Active"}, {"measurement": "Activity", "setting": "COLO 205 [6]", "value": 1.47, "unit": "%"}, {"measurement": "IC50", "setting": "[7]", "value": 0.9, "unit": "µM"}, {"measurement": "IC90", "setting": "[7]", "value": 9.1, "unit": "µM"}, {"measurement": "inhibition in vivo at 50 mg/kg", "setting": "COLO 205 [8]", "value": 32.1, "unit": "%"}, {"measurement": "Activity", "setting": "COLO 205 [9]", "value": 3.09, "unit": "%"}, {"measurement": "IC50", "setting": "[10]", "value": 3, "unit": "µM"}, {"measurement": "IC90", "setting": "[10]", "value": 35.1, "unit": "µM"}, {"measurement": "fold change (FC)", "setting": "[11]", "value": 3.4}, {"measurement": "Activity", "setting": "COLO 205 [12]", "value": "Active"}, {"measurement": "inhibition", "setting": "[13]", "value": "Dose-Dependent Effect"}, {"measurement": "inhibition", "setting": "[14]", "value": "> 70", "unit": "%"}, {"measurement": "Ki", "setting": "Carbonic anhydrase 1", "value": 0.29, "unit": "µM"}, {"measurement": "Activity", "setting": "COLO 205 [15]", "value": 63.55, "unit": "%"}, {"measurement": "Activity", "setting": "COLO 205 [16]", "value": 305.3, "unit": "mm3"}, {"measurement": "inhibition", "setting": "[17]", "value": 58, "unit": "%"}]}, {"compound": "Cc1cn([C@H]2C[C@@H](n3cc(COC(=O)c4ccc(S(N)(=O)=O)cc4)nn3)[C@@H](CO)O2)c(=O)[nH]c1=O", "values": [{"measurement": "inhibition", "setting": "[1]", "value": "Dose-Dependent Effect"}, {"measurement": "inhibition", "setting": "[2]", "value": "Dose-Dependent Effect"}, {"measurement": "Activity", "setting": "COLO 205 [3]", "value": 67.28, "unit": "%"}, {"measurement": "inhibition", "setting": "[4]", "value": 4.5, "unit": "%"}, {"measurement": "Activity", "setting": "COLO 205 [5]", "value": 92.93, "unit": "%"}, {"measurement": "Activity", "setting": "COLO 205 [6]", "value": 0.94, "unit": "%"}, {"measurement": "IC50", "setting": "[7]", "value": 5.9, "unit": "µM"}, {"measurement": "IC90", "setting": "[7]", "value": 29.1, "unit": "µM"}, {"measurement": "Activity", "setting": "COLO 205 [9]", "value": 3.82, "unit": "%"}, {"measurement": "IC50", "setting": "[10]", "value": 8.6, "unit": "µM"}, {"measurement": "IC90", "setting": "[10]", "value": 33.2, "unit": "µM"}, {"measurement": "fold change (FC)", "setting": "[11]", "value": 2.3}, {"measurement": "Activity", "setting": "COLO 205 [12]", "value": "Active"}, {"measurement": "inhibition", "setting": "[13]", "value": "Dose-Dependent Effect"}, {"measurement": "inhibition", "setting": "[14]", "value": "> 70", "unit": "%"}, {"measurement": "inhibition in vivo at 50 mg/kg", "setting": "COLO 205 [18]", "value": 33, "unit": "%"}, {"measurement": "Ki", "setting": "Carbonic anhydrase 1", "value": 0.028, "unit": "µM"}, {"measurement": "Activity", "setting": "COLO 205 [15]", "value": 42.09, "unit": "%"}, {"measurement": "Activity", "setting": "COLO 205 [16]", "value": 552.6, "unit": "mm3"}, {"measurement": "Activity", "setting": "COLO 205 [19]", "value": 181.4, "unit": "mm3"}, {"measurement": "inhibition", "setting": "[17]", "value": 72, "unit": "%"}]}]}
